In patent US20190053492A1, “SUBSTITUTED PYRIDINE COMPOUNDS AS PESTICIDES” (Bayer CropScience Aktiengesellschaft, priority 2016, published 2019):
Like-named read-outs stand apart in the source and are kept apart here.

Legend:
Spodoptera frugiperda = Spodoptera frugiperda spray test; assay type: in vivo; conditions: after 7 days, maize leaf discs
Outline: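 Maize leaf discs were sprayed with compound formulated in acetone/DMF and emulsifier-containing water, dried, then infested with Spodoptera frugiperda caterpillars. Percent kill was scored after 7 days, from 100% (all dead) to 0% (none dead).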

Ctenocephalides felis = Ctenocephalides felis oral test; assay type: in vivo; conditions: application rate 100 ppm in citrated cattle blood, after 2 days, adult cat fleas
Outline: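 About 20 unfed adult cat fleas fed through a parafilm membrane on citrated cattle blood dosed with compound from a DMSO formulation. Percent kill was scored after 2 days.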

Lucilia cuprina = Lucilia cuprina test; assay type: in vivo; conditions: application rate 100 ppm, after 2 days, L1 larvae
Outline: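 Active ingredient dissolved in DMSO and diluted with water to the test concentration. About 20 first-instar sheep blowfly larvae placed on minced horsemeat containing the formulation; percentage of larvae killed scored after 2 days.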

Musca domestica = Musca domestica test; assay type: in vivo; conditions: after 2 days, adult houseflies
Protocol: Musca domestica Test Solvent: dimethyl sulphoxide To produce a suitable active ingredient formulation, 10 mg of active ingredient are mixed with 0.5 ml of dimethyl sulphoxide, and the concentrate is diluted with water to the desired concentration. Vessels containing a sponge treated with sugar solution and the active ingredient formulation of the desired concentration are populated with 10 adult houseflies (Musca domestica). After 2 days, the kill in % is determined. 100% means that all of the flies have been killed; 0% means that none of the flies have been killed.

[1] = log P by HPLC on reversed-phase column (C 18), EEC Directive 79/831 Annex V.A8; assay type: physicochemical; conditions: 55° C.; for LOGP_HCOOH: log P (HCOOH); for chromatographic logP: reversed-phase HPLC column (C 18)
Protocol: Temperature: 55° C. […] Called log P (HCOOH) in the table. […] Called log P (neutral) in the table.

Phaedon cochleariae = Phaedon cochleariae spray test; assay type: in vivo; conditions: after 7 days, Chinese cabbage leaf discs
Outline: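 Chinese cabbage leaf discs sprayed with compound in acetone/DMF and emulsifier-containing water, then infested with mustard beetle larvae once dry. Efficacy in % scored after 7 days (100% = all larvae killed, 0% = none).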

Tetranychus urticae = Tetranychus urticae spray test, OP-resistant; assay type: in vivo; conditions: after 6 days, bean leaf discs
Protocol: Tetranychus urticae—Spray Test, OP-Resistant
Solvent: 78.0 parts by weight of acetone • • 1.5 parts by weight of dimethylformamide
Emulsifier: alkylaryl polyglycol ether
To produce a suitable active ingredient formulation, 1 part by weight of active ingredient is dissolved with the specified parts by weight of solvent and made up with water containing an emulsifier concentration of 1000 ppm until the desired concentration is attained. To produce further test concentrations, the formulation is diluted with emulsifier-containing water.
Discs of bean leaves (Phaseolus vulgaris) infested with all stages of the greenhouse red spider mite (Tetranychus urticae) are sprayed with an active ingredient formulation of the desired concentration.
After 6 days, the efficacy in % is determined. 100% means that all the spider mites have been killed; 0% means that no spider mites have been killed.

[2] = acidic range pH 2.7, 0.1% aqueous formic acid and acetonitrile, reversed-phase column (C 18)
[3] = log P, neutral range, HPLC on reversed-phase column (C 18)
[4] = acidic range at pH 2.7, 0.1% aqueous formic acid and acetonitrile, HPLC on reversed-phase column (C 18)

Structure (SMILES)	LOGP_NEUTRAL [1, 3]	LOGP_HCOOH [1, 4]	efficacy (caterpillars killed) (Spodoptera frugiperda; application rate 100 g/ha)	efficacy (caterpillars killed) (Spodoptera frugiperda; application rate 500 g/ha)	efficacy (kill in %) (Ctenocephalides felis)	efficacy (kill in %) (Lucilia cuprina)	efficacy (kill in %) (Musca domestica; application rate 100 ppm)	efficacy (beetle larvae killed) (Phaedon cochleariae; application rate 100 g/ha)	efficacy (beetle larvae killed) (Phaedon cochleariae; application rate 500 g/ha)	further results
O=C(NC1CC1)c1cc(-c2ccc(OC(F)(F)F)cc2)cc(NC(=O)C2CC2)n1 [Example I-089]	3.39		100%	100%	100%	95%	100%	100%	100%	LOGP_HCOOH [1, 2]: 3.51
Cn1ccc(-c2ccc(CNC(=O)c3cc(-c4ccc(OC(F)(F)F)cc4)cc(NC(=O)C4CC4)n3)cc2)n1 [Example I-100]	3.75			83%						efficacy (spider mites killed) (Tetranychus urticae; application rate 100 g/ha): 90%; LOGP_HCOOH [1, 2]: 3.86
COC(=O)c1ccc(CNC(=O)c2cc(-c3ccc(OC(F)(F)F)cc3)cc(NC(=O)C3CC3)n2)cc1 [Example I-101]	3.97								83%	efficacy (spider mites killed) (Tetranychus urticae; application rate 500 g/ha): 90%; LOGP_HCOOH [1, 2]: 4.08
CC(C#N)NC(=O)c1cc(-c2ccc(OC(F)(F)F)cc2)cc(NC(=O)C2CC2)n1 (stereo not drawn) [Example I-115]	3.40	3.46	100%	100%	100%	90%	80%	100%	100%	
N#Cc1ccc(CNC(=O)c2cc(-c3cc(F)c(OC(F)(F)F)c(F)c3)cc(NC(=O)C3CC3)n2)cc1 [Example I-152]	4.05	4.14	100%	100%	100%	90%	90%	100%	100%	
N#Cc1ccc(CNC(=O)c2cc(-c3ccc4c(c3)OC(F)(F)O4)cc(NC(=O)C3CC3)n2)cc1 [Example I-154]	3.61	3.76	83%	100%	100%	100%	100%	100%	100%	
N#Cc1ccc(CNC(=O)c2cc(-c3cc(F)c(OC(F)F)c(F)c3)cc(NC(=O)C3CC3)n2)cc1 [Example I-155]	3.40	3.46	100%	100%	100%	100%	100%		83%	
N#Cc1ccc(CNC(=O)c2cc(-c3ccc(C(F)(F)F)s3)cc(NC(=O)C3CC3)n2)cc1 [Example I-160, N-(4-Cyanobenzyl)-6-[(cyclopropylcarbonyl)amino]-4-[5-(trifluoromethyl)-2-thienyl]pyridine-2-carboxamide]						100%	80%			pest or weed control at 100 g/ha (Spodoptera frugiperda; Spodoptera frugiperda, foliar, 168 h, application rate 100 g/ha, read-out: efficacy (caterpillars killed)): 100%; pest or weed control at 500 g/ha (Spodoptera frugiperda; Spodoptera frugiperda, foliar, 168 h, application rate 500 g/ha, read-out: efficacy (caterpillars killed)): 100%; pest or weed control at 100 ppm (Ctenocephalides felis; Ctenocephalides felis, po, 48 h, read-out: efficacy (kill in %)): 100%; chromatographic logP ([1]; pH 2.7, LC-MS acidic range, pH 2.7, 0.1% formic acid/acetonitrile, read-out: log P (acidic) / log P (HCOOH)): 3.73; chromatographic logP ([1]; pH 2.7, log P (HCOOH), acidic range at pH 2.7, 0.1% aqueous formic acid and acetonitrile, HPLC on reversed-phase column (C 18), read-out: LOGP_HCOOH): 3.68; pest or weed control at 100 g/ha (Phaedon cochleariae; Phaedon cochleariae, foliar, 168 h, application rate 100 g/ha, read-out: efficacy (beetle larvae killed)): 100%; pest or weed control at 500 g/ha (Phaedon cochleariae; Phaedon cochleariae, foliar, 168 h, application rate 500 g/ha, read-out: efficacy (beetle larvae killed)): 100%
N#Cc1ccc(CNC(=O)c2cc(-c3ccc(OC(F)(F)F)cc3)cc(NC(=O)C3CC3)n2)s1 [Example I-255]			83%	100%						efficacy (spider mites killed) (Tetranychus urticae; application rate 500 g/ha): 90%; LOGP_HCOOH [1, 2]: 3.90; LOGP_NEUTRAL ([1]; log P (neutral), HPLC reversed-phase column (C 18)): 3.88

Second part, led by results:

LOGP_NEUTRAL [1, 3]	LOGP_HCOOH [1, 4]	Structure (SMILES)	efficacy (caterpillars killed) (Spodoptera frugiperda; application rate 100 g/ha)	efficacy (caterpillars killed) (Spodoptera frugiperda; application rate 500 g/ha)	efficacy (kill in %) (Ctenocephalides felis)	efficacy (kill in %) (Lucilia cuprina)	efficacy (kill in %) (Musca domestica; application rate 100 ppm)	efficacy (beetle larvae killed) (Phaedon cochleariae; application rate 100 g/ha)	efficacy (beetle larvae killed) (Phaedon cochleariae; application rate 500 g/ha)	further results
4.57	4.27	N#Cc1ccc(CNC(=O)c2cc(-c3ccc4c(c3)OC(F)(F)C(F)(F)O4)cc(NC(=O)C3CC3)n2)cc1 [Example I-172]	100%	100%	100%	100%	100%		100%	
	4.23	O=C(NC1(C2CC2)CC1)c1cc(-c2ccc(OC(F)(F)F)cc2)cc(NC(=O)C2CC2)n1 [Example I-184]		100%	100%	100%		100%	100%	efficacy (kill in %) (Musca domestica; application rate 20 ppm): 100%
3.74	3.81	N#Cc1ccc(CNC(=O)c2cc(-c3ccc(OC(F)(F)C(F)Cl)cc3)cc(NC(=O)C3CC3)n2)cc1 (stereo not drawn) [Example I-194]							83%	efficacy (spider mites killed) (Tetranychus urticae; application rate 100 g/ha): 90%; efficacy (spider mites killed) (Tetranychus urticae; application rate 500 g/ha): 90%
4.08	4.22	N#CC1CCC(CNC(=O)c2cc(-c3ccc(C(F)(F)C(F)(F)F)cc3)cc(NC(=O)C3CC3)n2)CC1 (stereo not drawn) [Example I-195]	100%	100%	100%	100%	100%	100%	100%	efficacy (kill in %) (Musca domestica; application rate 20 ppm): 100%
4.30	4.37	O=C(NCc1ccc([N+](=O)[O-])cc1)c1cc(-c2ccc(C(F)(F)C(F)(F)F)cc2)cc(NC(=O)C2CC2)n1 [Example I-196]	100%	100%	100%	100%	80%	100%	100%	
